Test results from ChEMBL document CHEMBL3046070, “New N-arylamino biquinoline derivatives: microwave-assisted synthesis and their antimicrobial activities” (2013).
≈ marks a conversion by molar mass, not a printed value.

How the values were obtained:
Type in all cases: functional
Candida albicans = experiment: Antifungal activity against Candida albicans MTCC 227 assessed as growth inhibition after overnight incubation by NCCLS broth microdilution method
Streptococcus pneumoniae = experiment: Antibacterial activity against Streptococcus pneumoniae MTCC 1936 assessed as growth inhibition after overnight incubation by NCCLS broth microdilution method
Clostridium tetani = experiment: Antibacterial activity against Clostridium tetani MTCC 449 assessed as growth inhibition after overnight incubation by NCCLS broth microdilution method
Bacillus subtilis = experiment: Antibacterial activity against Bacillus subtilis MTCC 441 assessed as growth inhibition after overnight incubation by NCCLS broth microdilution method
Vibrio cholerae = experiment: Antibacterial activity against Vibrio cholerae MTCC 3906 assessed as growth inhibition after overnight incubation by NCCLS broth microdilution method
Aspergillus fumigatus = experiment: Antifungal activity against Aspergillus fumigatus MTCC 3008 assessed as growth inhibition after overnight incubation by NCCLS broth microdilution method
Escherichia coli = experiment: Antibacterial activity against Escherichia coli MTCC 443 assessed as growth inhibition after overnight incubation by NCCLS broth microdilution method
Salmonella typhi = experiment: Antibacterial activity against Salmonella enterica subsp. enterica serovar Typhi MTCC 98 assessed as growth inhibition after overnight incubation by NCCLS broth microdilution method

Row | Structure (SMILES) | MIC (Candida albicans) [µg/mL] | MIC (Streptococcus pneumoniae) [µg/mL] | MIC (Clostridium tetani) [µg/mL] | MIC (Bacillus subtilis) [µg/mL] | MIC (Vibrio cholerae) [µg/mL] | MIC (Aspergillus fumigatus) [µg/mL] | MIC (Escherichia coli) [µg/mL] | MIC (Salmonella typhi) [µg/mL]
1 | CCOC(=O)C1=C(N)N(Nc2ccccc2)C2=C(C(=O)CC(C)(C)C2)C1c1cc2cc(C)ccc2nc1Cl (stereo not drawn) | 500 (≈ 942 µM) | 250 (≈ 471 µM) | 500 (≈ 942 µM) | 500 (≈ 942 µM) | 100 (≈ 188 µM) | > 1000 | 100 (≈ 188 µM) | 250 (≈ 471 µM)
2 | CCOC(=O)C1=C(N)N(Nc2ccc(OC)cc2)C2=C(C(=O)CC(C)(C)C2)C1c1cc2cc(C)ccc2nc1Cl (stereo not drawn) | 250 (≈ 446 µM) | 125 (≈ 223 µM) | 250 (≈ 446 µM) | 250 (≈ 446 µM) | 250 (≈ 446 µM) | 500 (≈ 891 µM) | 250 (≈ 446 µM) | 100 (≈ 178 µM)
3 | CCOC(=O)C1=C(N)N(Nc2ccc(Cl)cc2)C2=C(C(=O)CC(C)(C)C2)C1c1cc2ccccc2nc1Cl (stereo not drawn) | 1000 (≈ 1810 µM) | 200 (≈ 363 µM) | 125 (≈ 227 µM) | 200 (≈ 363 µM) | 250 (≈ 453 µM) | 250 (≈ 453 µM) | 200 (≈ 363 µM) | 250 (≈ 453 µM)
4 | CCOC(=O)C1=C(N)N(Nc2ccc(C)cc2)C2=C(C(=O)CC(C)(C)C2)C1c1cc2cc(Cl)ccc2nc1Cl (stereo not drawn) | 250 (≈ 442 µM) | 100 (≈ 177 µM) | 500 (≈ 884 µM) | 250 (≈ 442 µM) | 500 (≈ 884 µM) | > 1000 | 500 (≈ 884 µM) | 500 (≈ 884 µM)
5 | O=C(N[C@H](CO)[C@H](O)c1ccc([N+](=O)[O-])cc1)C(Cl)Cl [CHLORAMPHENICOL] | – | 50 (≈ 155 µM) | 50 (≈ 155 µM) | 50 (≈ 155 µM) | 50 (≈ 155 µM) | – | 50 (≈ 155 µM) | 50 (≈ 155 µM)
6 | CCOC(=O)C1=C(N)N(Nc2ccc(Cl)cc2)C2=C(C(=O)CC(C)(C)C2)C1c1cc2cc(Cl)ccc2nc1Cl (stereo not drawn) | 1000 (≈ 1710 µM) | 500 (≈ 853 µM) | 250 (≈ 427 µM) | 500 (≈ 853 µM) | 250 (≈ 427 µM) | 500 (≈ 853 µM) | 250 (≈ 427 µM) | 250 (≈ 427 µM)
7 | CCOC(=O)C1=C(N)N(Nc2ccc(F)cc2)C2=C(C(=O)CC(C)(C)C2)C1c1cc2cc(C)ccc2nc1Cl (stereo not drawn) | 100 (≈ 182 µM) | 200 (≈ 364 µM) | 100 (≈ 182 µM) | 200 (≈ 364 µM) | 100 (≈ 182 µM) | > 1000 | 100 (≈ 182 µM) | 200 (≈ 364 µM)
8 | CCOC(=O)C1=C(N)N(Nc2ccc(Br)cc2)C2=C(C(=O)CC(C)(C)C2)C1c1cc2cc(C)ccc2nc1Cl (stereo not drawn) | 500 (≈ 820 µM) | 250 (≈ 410 µM) | 500 (≈ 820 µM) | 100 (≈ 164 µM) | 500 (≈ 820 µM) | 1000 (≈ 1640 µM) | 500 (≈ 820 µM) | 500 (≈ 820 µM)
9 | CCOC(=O)C1=C(N)N(Nc2ccccc2)C2=C(C(=O)CC(C)(C)C2)C1c1cc2ccccc2nc1Cl (stereo not drawn) | 250 (≈ 484 µM) | 200 (≈ 387 µM) | 500 (≈ 967 µM) | 200 (≈ 387 µM) | 500 (≈ 967 µM) | > 1000 | 50 (≈ 96.7 µM) | 200 (≈ 387 µM)
10 | CCOC(=O)C1=C(N)N(Nc2ccc(F)cc2)C2=C(C(=O)CC(C)(C)C2)C1c1cc2cc(Cl)ccc2nc1Cl (stereo not drawn) | 1000 (≈ 1760 µM) | 500 (≈ 878 µM) | 250 (≈ 439 µM) | 500 (≈ 878 µM) | 500 (≈ 878 µM) | > 1000 | 200 (≈ 351 µM) | 250 (≈ 439 µM)
11 | CCOC(=O)C1=C(N)N(Nc2ccc(Cl)cc2)C2=C(C(=O)CC(C)(C)C2)C1c1cc2cc(OC)ccc2nc1Cl (stereo not drawn) | 500 (≈ 860 µM) | 250 (≈ 430 µM) | 250 (≈ 430 µM) | 250 (≈ 430 µM) | 250 (≈ 430 µM) | > 1000 | 100 (≈ 172 µM) | 100 (≈ 172 µM)
12 | CCOC(=O)C1=C(N)N(Nc2ccc(Cl)cc2)C2=C(C(=O)CC(C)(C)C2)C1c1cc2cc(C)ccc2nc1Cl (stereo not drawn) | 500 (≈ 884 µM) | 500 (≈ 884 µM) | 200 (≈ 354 µM) | 500 (≈ 884 µM) | 250 (≈ 442 µM) | > 1000 | 62.5 (≈ 111 µM) | 200 (≈ 354 µM)
13 | CCOC(=O)C1=C(N)N(Nc2ccccc2)C2=C(C(=O)CC(C)(C)C2)C1c1cc2cc(OC)ccc2nc1Cl (stereo not drawn) | > 1000 | 200 (≈ 366 µM) | 250 (≈ 457 µM) | 200 (≈ 366 µM) | 250 (≈ 457 µM) | > 1000 | 250 (≈ 457 µM) | 250 (≈ 457 µM)
14 | CCOC(=O)C1=C(N)N(Nc2ccc(Br)cc2)C2=C(C(=O)CC(C)(C)C2)C1c1cc2cc(Cl)ccc2nc1Cl (stereo not drawn) | 500 (≈ 793 µM) | 200 (≈ 317 µM) | 250 (≈ 397 µM) | 200 (≈ 317 µM) | 250 (≈ 397 µM) | 1000 (≈ 1590 µM) | 200 (≈ 317 µM) | 100 (≈ 159 µM)
15 | CCOC(=O)C1=C(N)N(Nc2ccc(C)cc2)C2=C(C(=O)CC(C)(C)C2)C1c1cc2cc(C)ccc2nc1Cl (stereo not drawn) | 1000 (≈ 1830 µM) | 250 (≈ 459 µM) | 500 (≈ 917 µM) | 250 (≈ 459 µM) | 500 (≈ 917 µM) | > 1000 | 250 (≈ 459 µM) | 500 (≈ 917 µM)
